According to US5124315A, “Liquid pharmaceutical composition for nasal administration containing a polypeptide as active ingredient” (Phideatech S.R.L., priority 1991, dated 1992):

Conditions: liquid nasal compositions, common storage conditions
Excerpt: The present inventors have accordingly conducted extensive researches for finding a suitable stabilizing agent.

SMILES: N.N.O=C(O)C(O)C(O)C(=O)O (stereo not shown) [ammonium tartrate]
- stabilizing activity on liquid compositions containing polypeptides: satisfactory stabilizing agent
